Experimental data: patent publication US10206907B2, “Compounds useful for the treatment of degenerative and inflammatory diseases” (GALAPAGOS NV, priority 2008, dated 2019)

Legend:
[1] = molecular target: Recombinant human JAK1 catalytic domain (Homo sapiens (Human), UniProt P23458); assay: JAK1 inhibition assay; assay type: biochemical; settings: semi-quantitative score
In short: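 Radiometric assay read by scintillation counting after phosphoric-acid washes. Percent inhibition calculated from cpm relative to vehicle and 10 μM staurosporine control. IC50 derived from compound dose-dilution series.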

[2] = molecular target: Recombinant human JAK2 catalytic domain (Homo sapiens (Human), UniProt O60674); assay: JAK2 inhibition assay; assay type: biochemical; settings: semi-quantitative score
Recombinant human JAK2 catalytic domain, sequence (O60674 808-1132): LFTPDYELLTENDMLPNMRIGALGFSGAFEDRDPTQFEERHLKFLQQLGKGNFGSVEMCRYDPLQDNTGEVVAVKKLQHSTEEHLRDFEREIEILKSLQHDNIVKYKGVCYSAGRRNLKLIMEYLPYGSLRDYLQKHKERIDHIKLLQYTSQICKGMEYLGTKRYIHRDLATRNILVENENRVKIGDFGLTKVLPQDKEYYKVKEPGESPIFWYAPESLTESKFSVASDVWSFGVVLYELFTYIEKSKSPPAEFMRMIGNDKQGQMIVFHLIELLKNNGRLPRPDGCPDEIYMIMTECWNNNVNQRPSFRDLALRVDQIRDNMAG
In short: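 Radiometric kinase reactions ran for 90 min at 30 °C and were stopped with phosphoric acid, then washed and counted by scintillation. Percent inhibition was set relative to vehicle and to 10 μM staurosporine background. IC50 was derived from dose-dilution series.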

[3] = tested on: JAK-STAT signalling in HeLa cells; assay: JAK-STAT signalling assay (OSM-triggered pSTAT1(2)-luciferase reporter in HeLa cells); assay type: cell-based; settings: Homo sapiens; HeLa cells, OSM-triggered pSTAT1(2)-luciferase reporter; read-out: STAT signalling EC50
In short: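 HeLa cells transiently transfected with pSTAT1(2)-luciferase reporter plus LacZ internal control, incubated overnight at 37 °C, 10% CO2, then OSM-stimulated with compound. Luciferase read by Steadylite luminescence and normalised to β-galactosidase (ONPG); percent inhibition from controls, EC50 from dose-response.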

[4] = tested on: MMP13 in SW1353 cells; assay: OSM/IL-1β signaling assay (MMP13 levels in SW1353 cells); assay type: cell-based; settings: Homo sapiens; SW1353 cells, OSM and IL-1β triggered, MMP13 levels 48 hours after triggering; read-out: MMP13 EC50;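 also: secreted MMP13 captured by antibody, activated with APMA and its activity read by fluorescence, inhibition scaled between vehicle-treated triggered wells (0%) and untriggered wells (100%)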
Procedure: The cells were seeded in 96 well plates at 15,000 cells/well in a volume of 120 μL DMEM (Invitrogen) containing 10% (v/v) FBS and 1% penicillin/streptomycin (InVitrogen) incubated at 37° C. […] MMP13 activity was measured using an antibody capture activity assay. […] Next the wells were washed twice with PBS+0.05% Tween followed by MMP13 activation by addition of 35 μL of a 1.5 mM 4-Aminophenylmercuric acetate (APMA) (Sigma, A9563) solution and incubation at 37° C. for 1 hour. […] Percentage inhibition=((fluorescence determined in the presence of vehicle−fluorescence determined for sample with test compound present) divided by (fluorescence determined in the presence of vehicle−fluorescence determined for sample without trigger))*100%.

[5] = Microsomal stability, rat liver microsomes; assay type: in vitro ADME; settings: percentage of compound remaining after 60 minutes, 3 μM compound
Procedure: (§1) 40 μL of deionised water was added to a well of a polypropylene Matrix 2D barcode labelled storage tube (Thermo Scientific) and pre-incubated at 37° C.
(§2) A co-factor containing MgCl2, glucose-6-phosphate and NADP+ was prepared in deionised water and placed on ice before use.
(§3) A final working solution containing liver microsomes (Xenotech of a species of interest (human, mouse, rat, dog), previously described G6PDH and co-factors was prepared and this mix was incubated for no longer than 20 minutes at room temperature.
(§4) 30 μL of the pre-heated compound dilution was added to 40 μL of pre-heated water in the Matrix tubes and 30 μL of the microsomal mix was added.
(§5) To measure percentage remaining of compound at time zero MeOH or ACN was added (1:1) to the well before adding the microsomal mix.
(§6) The samples which were not stopped are incubated at 37° C., 300 rpm and after 1 hour of incubation the reaction was stopped with MeOH or ACN (1:1).
(§7) After stopping the reaction the samples were mixed and placed on ice for 30 min to precipitate the proteins.
(§8) The samples were analyzed on LCMS with a flow rate of 1 mL/min. Solvent A was 15 mM ammonia and solvent B was methanol or acetonitrile, depending on the stop solution used. […] The percentage remaining after 1 hour incubation was calculated from time 0 and was calculated as the percentage remaining.
(§9) The data on microsomal stability are expressed as a percentage of the total amount of compound remaining after 60 minutes.

[6] = Caco2 permeability (bi-directional); assay type: in vitro ADME, human; settings: human, pH 7.4; for Papp A→B at 1 h, 10 µM: Caco-2, apical to basolateral, read-out: Papp (A2B); for efflux ratio at 1 h, 10 µM: Caco-2, ratio of PappB>A/PappA>B
Procedure: Bi-directional Caco-2 assays were performed as described below.
2×10^5 cells/well were seeded in plating medium consisting of DMEM+GlutaMAXI+1% NEAA+10% FBS (FetalClone II)+1% Pen/Strep. The medium was changed every 2-3 days.
50 μM Lucifer Yellow (Sigma) was added to the donor buffer in all wells to assess integrity of the cell layers by monitoring Lucifer Yellow permeation. As Lucifer Yellow (LY) cannot freely permeate lipophilic barriers, a high degree of LY transport indicates poor integrity of the cell layer.
After a 1 hour incubation at 37° C. while shaking at an orbital shaker at 150 rpm, 70 μL aliquots were taken from both apical (A) and basal (B) chambers and added to 100 μL1 50:50 acetonitrile:water solution containing analytical internal standard (0.5 μM carbamazepine) in a 96 well plate.
Concentrations of compound in the samples were measured by high performance liquid-chromatography/mass spectroscopy (LC-MS/MS).
The Efflux ratios, as an indication of active efflux from the apical cell surface, were calculated using the ratio of PappB>A/PappA>B.
The following assay acceptance criteria were used:
Lucifer yellow permeability: ≤100 nm/s

[7] = Microsomal stability, human liver microsomes; assay type: in vitro ADME; settings: percentage of compound remaining after 60 minutes, 3 μM compound
Procedure: as §1, §2, §3, §4, §5, §6, §7, §8, §9

Recombinant human JAK1 catalytic domain, sequence (P23458 850-1154): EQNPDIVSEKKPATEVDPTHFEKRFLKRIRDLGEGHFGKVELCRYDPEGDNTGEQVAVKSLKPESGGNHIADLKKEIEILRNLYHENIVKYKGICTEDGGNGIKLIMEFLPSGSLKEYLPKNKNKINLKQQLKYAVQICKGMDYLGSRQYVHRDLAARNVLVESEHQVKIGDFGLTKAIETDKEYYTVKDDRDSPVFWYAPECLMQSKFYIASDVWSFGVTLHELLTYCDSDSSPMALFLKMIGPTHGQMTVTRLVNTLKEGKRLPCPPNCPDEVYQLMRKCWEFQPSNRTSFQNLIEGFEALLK

Row | SMILES | IC50 [1] [µM] | IC50 [2] [µM] | EC50 [3] [µM] | EC50 [4] [µM] | Microsomal Stability Rat (%) [5] | Papp A→B at 1 h, 10 µM [6] [×10⁻⁶ cm/s] | efflux ratio at 1 h, 10 µM [6] | Microsomal Stability Human (%) [7]
1 | CC(=O)N(Cc1ccc(C#N)nc1)c1ccc(-c2cccc3nc(NC(=O)C4CC4)nn23)cc1 [Compound 297, Cyclopropanecarboxylic acid (5-{4-[acetyl-(6-cyano-pyridin-3-ylmethyl)-amino]-phenyl}-[1,2,4]triazolo[1,5-a]pyridin-2-yl)-amide] | < 0.1 | < 0.1 | > 1 | > 1 | **** (**** 76-100) | 1.05 | 70.2 | 
2 | O=C(Nc1nc2cccc(-c3ccc(OCCOc4ccc(F)cc4)cc3)n2n1)C1CC1 [Compound 115, N-(5-(4-(2-(4-fluorophenoxy)ethoxy)phenyl)-[1,2,4]triazolo[1,5-a]pyridin-2-yl)cyclopropanecarboxamide] | < 0.1 | 0.101 to 0.5 | > 1 | > 1 | ** (** 26-50) |  |  | *** (*** 51-75)
3 | O=C(Nc1nc2cccc(-c3ccc(CC(=O)N4CCS(=O)(=O)CC4)cc3)n2n1)C1CC1 [Compound 267, Cyclopropanecarboxylic acid (5-{4-[2-(1,1-dioxo-thiomorpholin-4-yl)-2-oxo-ethyl]-phenyl}-[1,2,4]triazolo[1,5-a]pyridin-2-yl)-amide] | < 0.1 | 0.101 to 0.5 | > 1 | > 1 | **** (**** 76-100) |  |  | **** (**** 76-100)
4 | O=C(Cc1ccccc1)Nc1ccc(-c2cccc3nc(NC(=O)C4CC4)nn23)cc1 [Compound 23, N-(5-(4-(2-phenylacetamido)phenyl)-[1,2,4]triazolo[1,5-a]pyridin-2-yl)cyclopropanecarboxamide] | < 0.1 | 0.101 to 0.5 | > 1 | > 1 | ** (** 26-50) |  |  | * (* 0-25)
5 | O=C(Nc1nc2cccc(-c3ccc(OCc4ccc[n+]([O-])c4)cc3)n2n1)C1CC1 [Compound 196, Cyclopropanecarboxylic acid {5-[4-(1-hydroxy-pyridin-3-ylmethoxy)-phenyl]-[1,2,4]triazolo[1,5-a]pyridin-2-yl}-amide] | < 0.1 | 0.101 to 0.5 | > 1 | > 1 | **** (**** 76-100) |  |  | **** (**** 76-100)
6 | CC(=O)N(Cc1cccnc1)c1ccc(-c2cccc3nc(NC(=O)C4CC4)nn23)cc1 [Compound 202, Cyclopropanecarboxylic acid {5-[4-(acetyl-pyridin-3-ylmethyl-amino)-phenyl]-[1,2,4]triazolo[1,5-a]pyridin-2-yl}-amide] | < 0.1 | < 0.1 | > 1 | > 1 | * (* 0-25) |  |  | * (* 0-25)
7 | O=C(Nc1nc2cccc(-c3ccc(-c4ccccc4)cc3)n2n1)C1CC1 [Compound 7, N-(5-(biphenyl-4-yl)-[1,2,4]triazolo[1,5-a]pyridin-2-yl)cyclopropanecarboxamide] | < 0.1 | 0.101 to 0.5 | > 1 | > 1 | ** (** 26-50) |  |  | ** (** 26-50)
8 | O=C(Nc1nc2cccc(-c3ccc(CC(=O)N4CCCCC4)cc3)n2n1)C1CC1 [Compound 266, Cyclopropanecarboxylic acid {5-[4-(2-oxo-2-piperidin-1-yl-ethyl)-phenyl]-[1,2,4]triazolo[1,5-a]pyridin-2-yl}-amide] | < 0.1 | 0.101 to 0.5 | 0.501 to 1 | > 1 | **** (**** 76-100) |  |  | * (* 0-25)

The next lines start with the values.

Row | IC50 [1] [µM] | IC50 [2] [µM] | EC50 [3] [µM] | EC50 [4] [µM] | Microsomal Stability Rat (%) [5] | Papp A→B at 1 h, 10 µM [6] [×10⁻⁶ cm/s] | efflux ratio at 1 h, 10 µM [6] | Microsomal Stability Human (%) [7] | SMILES
9 | < 0.1 | < 0.1 | 0.501 to 1 | 0.001 to 0.5 | * (* 0-25) |  |  | * (* 0-25) | COc1ccc(NCc2ccc(-c3cccc4nc(NC(=O)C5CC5)nn34)cc2)cn1 [Compound 236, Cyclopropanecarboxylic acid (5-{4-[(6-methoxy-pyridin-3-ylamino)-methyl]-phenyl}-[1,2,4]triazolo[1,5-a]pyridin-2-yl)-amide]
10 | < 0.1 | < 0.1 | > 1 | > 1 | **** (**** 76-100) | 0.3 | 69.7 |  | O=C(Nc1nc2cccc(-c3ccc(CNC4CCS(=O)(=O)C4)cc3)n2n1)C1CC1 (centres unmarked) [Compound 304, Cyclopropanecarboxylic acid (5-{4-[(1,1-dioxo-tetrahydro-thiophen-3-ylamino)-methyl]-phenyl}-[1,2,4]triazolo[1,5-a]pyridin-2-yl)-amide]
11 | < 0.1 | < 0.1 | 0.101 to 0.5 | > 1 | *** (*** 51-75) |  |  | *** (*** 51-75) | O=C(Nc1nc2cccc(-c3ccc(OCc4ccc(Cl)nc4)cc3)n2n1)C1CC1 [Compound 198, Cyclopropanecarboxylic acid {5-[4-(6-chloro-pyridin-3-ylmethoxy)-phenyl]-[1,2,4]triazolo[1,5-a]pyridin-2-yl}-amide]
12 | < 0.1 | < 0.1 | 0.101 to 0.5 | 0.501 to 1 | * (* 0-25) |  |  | * (* 0-25) | O=C(Nc1nc2cccc(-c3ccc(CNc4c(F)cccc4F)cc3)n2n1)C1CC1 [Compound 246, Cyclopropanecarboxylic acid (5-{4-[(2,6-difluoro-phenylamino)-methyl]-phenyl}-[1,2,4]triazolo[1,5-a]pyridin-2-yl)-amide]
13 |  | < 0.1 |  |  |  | 24 | 1.1 |  | O=C(Nc1nc2cccc(-c3ccc(CNc4ncc(F)cc4F)cc3)n2n1)C1CC1 [Compound 257, Cyclopropanecarboxylic acid (5-{4-[(3,5-difluoro-pyridin-2-ylamino)-methyl]-phenyl}-[1,2,4]triazolo[1,5-a]pyridin-2-yl)-amide]
14 | < 0.1 | < 0.1 | 0.101 to 0.5 | > 1 | * (* 0-25) |  |  | * (* 0-25) | N#CCc1ccc(NCc2ccc(-c3cccc4nc(NC(=O)C5CC5)nn34)cc2)cc1 [Compound 224]
15 | < 0.1 | < 0.1 | 0.501 to 1 | 0.501 to 1 | * (* 0-25) |  |  | * (* 0-25) | O=C(Nc1nc2cccc(-c3ccc(CNc4ccccn4)cc3)n2n1)C1CC1 [Compound 244, Cyclopropanecarboxylic acid (5-[4-(pyridin-2-ylaminomethyl)-phenyl]-[1,2,4]triazolo[1,5-a]pyridin-2-yl}-amide]
16 | < 0.1 | < 0.1 | 0.501 to 1 | 0.501 to 1 | * (* 0-25) |  |  | * (* 0-25) | O=C(Nc1nc2cccc(-c3ccc(CCc4ccccn4)cc3)n2n1)C1CC1 [Compound 211, Cyclopropanecarboxylic Acid {5-[4-(2-pyridin-2-yl-ethyl)-phenyl]-[1,2,4]triazolo[1,5-a]pyridin-2-yl}-amide]
